Laboratory results from ChEMBL document CHEMBL1201862, “PubChem BioAssay data set” (2004).
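Cultured in 96-well plates, cells were exposed to test compound for 48 hours across five concentrations. At the GI50, growth is halved.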 The source made the active and inactive calls. No stated cut-off is given here; in the data, active = GI50 up to about 1.1 µM and inactive = higher.

Legend:
Assay in all cases: DTP human tumour cell line panel, 48 h
[1] = system: ACHN
[2] = system: MOLT-4
[3] = system: SK-MEL-5
[4] = system: SF-268
[5] = system: Malme-3M
[6] = system: SK-MEL-28
[7] = system: HCC 2998
[8] = system: MCF7
[9] = system: EKVX
[10] = system: HOP-62
[11] = system: SW-620
[12] = system: BT-549
[13] = system: RXF 393
[14] = system: KM12
[15] = system: NCI-H460
[16] = system: RPMI-8226
[17] = system: SR
[18] = system: Hs-578T
[19] = system: HT-29
[20] = system: A498
[21] = system: SF-539
[22] = system: LOX IMVI
[23] = system: M14
[24] = system: NCI-H522
[25] = system: NCI-H23
[26] = system: NCI-H226
[27] = system: DU-145
[28] = system: T47D
[29] = system: OVCAR-3
[30] = system: SNB-75
[31] = system: IGROV-1
[32] = system: U-251
[33] = system: K562
[34] = system: OVCAR-5
[35] = system: A549
[36] = system: HCT-116
[37] = system: UO-31
[38] = system: SN12C
[39] = system: TK-10
[40] = system: HCT-15
[41] = system: HOP-92
[42] = system: CCRF-CEM
[43] = system: CAKI-1
[44] = system: OVCAR-8
[45] = system: 786-0
[46] = system: SNB-19
[47] = system: PC-3
[48] = system: MDA-N
[49] = system: HL-60
[50] = system: OVCAR-4
[51] = system: UACC-257
[52] = system: SF-295
[53] = system: MDA-MB-231
[54] = system: MDA-MB-435
[55] = system: COLO 205
[56] = system: SK-OV-3
[57] = system: UACC-62
[58] = system: NCI/ADR-RES
[59] = system: SK-MEL-2

COC(=O)c1cc(C)ccc1/C=C1\Cc2cccc(C)c2C1=O
GI50 [1]: 38.7 µM (inactive)
GI50 [2]: 9.35 µM (inactive)
GI50 [3]: 7.06 µM (inactive)
GI50 [4]: 98.9 µM (inactive)
GI50 [5]: 20.5 µM (inactive)
GI50 [6]: 62.1 µM (inactive)
GI50 [7]: 47.5 µM (inactive)
GI50 [8]: 30.5 µM (inactive)
GI50 [9]: 33.1 µM (inactive)
GI50 [10]: 31.2 µM (inactive)
GI50 [11]: 31.6 µM (inactive)
GI50 [12]: 17.6 µM (inactive)
GI50 [13]: 61.9 µM (inactive)
GI50 [14]: 26.7 µM (inactive)
GI50 [15]: > 100 µM (inactive)
GI50 [16]: 28.8 µM (inactive)
GI50 [17]: 24.7 µM (inactive)
GI50 [18]: 57.5 µM (inactive)
GI50 [19]: 12.8 µM (inactive)
GI50 [20]: 46.3 µM (inactive)
GI50 [21]: 67.3 µM (inactive)
GI50 [22]: 8.77 µM (inactive)
GI50 [23]: > 100 µM (inactive)
GI50 [24]: 10.5 µM (inactive)
GI50 [25]: > 100 µM (inactive)
GI50 [26]: 58.3 µM (inactive)
GI50 [27]: 65.3 µM (inactive)
GI50 [28]: 6.68 µM (inactive)
GI50 [29]: 19.5 µM (inactive)
GI50 [30]: 35.1 µM (inactive)
GI50 [31]: 76.9 µM (inactive)
GI50 [32]: 36.6 µM (inactive)
GI50 [33]: 9.02 µM (inactive)
GI50 [34]: 78.7 µM (inactive)
GI50 [35]: 28.2 µM (inactive)
GI50 [36]: 18.1 µM (inactive)
GI50 [37]: 44.7 µM (inactive)
GI50 [38]: 4.9 µM (inactive)
GI50 [39]: > 100 µM (inactive)
GI50 [40]: 18.8 µM
GI50 [41]: 20.4 µM (inactive)
GI50 [42]: 12.3 µM (inactive)
GI50 [43]: 49.2 µM (inactive)
GI50 [44]: 14.1 µM (inactive)
GI50 [45]: 50.4 µM (inactive)
GI50 [46]: > 100 µM (inactive)
GI50 [47]: 8.04 µM (inactive)
GI50 [48]: 11.1 µM (inactive)
GI50 [49]: 19.7 µM (inactive)
GI50 [50]: 68.5 µM (inactive)
GI50 [51]: 22 µM (inactive)
GI50 [52]: 30.9 µM (inactive)
GI50 [53]: 26.7 µM (inactive)

SCCCSCCSCCCSCCS
GI50 [2]: 33.2 µM (inactive)
GI50 [3]: 91.6 µM (inactive)
GI50 [54]: > 100 µM (inactive)
GI50 [4]: > 100 µM (inactive)
GI50 [6]: > 100 µM (inactive)
GI50 [7]: > 100 µM (inactive)
GI50 [8]: > 100 µM (inactive)
GI50 [9]: > 100 µM (inactive)
GI50 [10]: > 100 µM (inactive)
GI50 [11]: > 100 µM (inactive)
GI50 [12]: > 100 µM (inactive)
GI50 [55]: > 100 µM (inactive)
GI50 [56]: > 100 µM (inactive)
GI50 [14]: > 100 µM (inactive)
GI50 [15]: > 100 µM (inactive)
GI50 [17]: 55.7 µM (inactive)
GI50 [19]: > 100 µM (inactive)
GI50 [21]: > 100 µM (inactive)
GI50 [22]: > 100 µM (inactive)
GI50 [23]: 87.9 µM (inactive)
GI50 [24]: > 100 µM (inactive)
GI50 [25]: 85.9 µM (inactive)
GI50 [27]: > 100 µM (inactive)
GI50 [28]: > 100 µM (inactive)
GI50 [29]: > 100 µM (inactive)
GI50 [30]: 45.6 µM (inactive)
GI50 [31]: > 100 µM (inactive)
GI50 [32]: > 100 µM (inactive)
GI50 [33]: 97.9 µM (inactive)
GI50 [34]: > 100 µM (inactive)
GI50 [35]: > 100 µM (inactive)
GI50 [57]: > 100 µM (inactive)
GI50 [36]: > 100 µM (inactive)
GI50 [37]: 80.9 µM (inactive)
GI50 [38]: > 100 µM (inactive)
GI50 [40]: > 100 µM
GI50 [42]: 31.7 µM (inactive)
GI50 [44]: > 100 µM (inactive)
GI50 [45]: > 100 µM (inactive)
GI50 [46]: > 100 µM (inactive)
GI50 [47]: 65.8 µM (inactive)
GI50 [48]: > 100 µM (inactive)
GI50 [49]: 13.3 µM (inactive)
GI50 [50]: > 100 µM (inactive)
GI50 [58]: > 100 µM (inactive)
GI50 [51]: > 100 µM (inactive)
GI50 [52]: > 100 µM (inactive)
GI50 [53]: 70.6 µM (inactive)

CN(C)CCNC(=O)c1cccc(NC(=O)c2ccccc2)c1[N+](=O)[O-]
GI50 [1]: > 100 µM (inactive)
GI50 [2]: > 100 µM (inactive)
GI50 [3]: 77.1 µM (inactive)
GI50 [54]: > 100 µM (inactive)
GI50 [4]: > 100 µM (inactive)
GI50 [5]: 12.8 µM (inactive)
GI50 [6]: > 100 µM (inactive)
GI50 [7]: > 100 µM (inactive)
GI50 [8]: > 100 µM (inactive)
GI50 [10]: > 100 µM (inactive)
GI50 [11]: > 100 µM (inactive)
GI50 [12]: 53.8 µM (inactive)
GI50 [55]: 8.65 µM (inactive)
GI50 [56]: > 100 µM (inactive)
GI50 [14]: > 100 µM (inactive)
GI50 [15]: 93.5 µM (inactive)
GI50 [18]: > 100 µM (inactive)
GI50 [19]: 25.5 µM (inactive)
GI50 [20]: > 100 µM (inactive)
GI50 [23]: > 100 µM (inactive)
GI50 [59]: > 100 µM (inactive)
GI50 [24]: > 100 µM (inactive)
GI50 [25]: > 100 µM (inactive)
GI50 [26]: > 100 µM (inactive)
GI50 [27]: > 10 µM (inactive)
GI50 [28]: > 100 µM (inactive)
GI50 [29]: 27.7 µM (inactive)
GI50 [30]: 36 µM (inactive)
GI50 [31]: > 100 µM (inactive)
GI50 [32]: > 100 µM (inactive)
GI50 [34]: > 100 µM (inactive)
GI50 [35]: > 100 µM (inactive)
GI50 [57]: > 100 µM (inactive)
GI50 [36]: > 100 µM (inactive)
GI50 [37]: > 100 µM (inactive)
GI50 [38]: > 100 µM (inactive)
GI50 [39]: > 100 µM (inactive)
GI50 [40]: > 100 µM
GI50 [42]: > 100 µM (inactive)
GI50 [43]: > 100 µM (inactive)
GI50 [44]: > 100 µM (inactive)
GI50 [45]: > 100 µM (inactive)
GI50 [46]: > 100 µM (inactive)
GI50 [47]: > 100 µM (inactive)
GI50 [48]: > 100 µM (inactive)
GI50 [49]: > 100 µM (inactive)
GI50 [58]: > 100 µM (inactive)
GI50 [51]: > 100 µM (inactive)
GI50 [52]: > 100 µM (inactive)
GI50 [53]: > 100 µM (inactive)
